Data set [1] in a line: Freeze-thaw stability of derivatives (freeze-thaw yield by liquid chromatography). Format: physicochemical. Particulars: for Dissolution property: appearance after dissolution at 0.2 mg/ml in 20 mM phosphate buffer solution (PB) (pH 7.0); for Freeze storage property: appearance after overnight storage at −20° C. and thawing to room temperature, 0.2 mg/ml in 20 mM PB (pH 7.0); for Freeze storage yield: concentration of polypeptide after freezing and thawing / concentration before, by liquid chromatography, −20° C. overnight. The essentials:
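Freeze-thaw yield is the ratio of peptide concentration after versus before one overnight −20° C freeze and room-temperature thaw, both quantified by RP-HPLC of supernatant after centrifugation. Samples were 0.2 mg/ml freeze-dried derivative in 20 mM PB, pH 7.0.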

The target in data set [2] is T1, human amylin receptor (Homo sapiens, UniProt O60896+P30988).
T1 construct: host or cells: CHO-K1/Ga15/AMY3 cells, further stably transfected with a CRE-luciferase plasmid
T1 sequence (P30988 25-474): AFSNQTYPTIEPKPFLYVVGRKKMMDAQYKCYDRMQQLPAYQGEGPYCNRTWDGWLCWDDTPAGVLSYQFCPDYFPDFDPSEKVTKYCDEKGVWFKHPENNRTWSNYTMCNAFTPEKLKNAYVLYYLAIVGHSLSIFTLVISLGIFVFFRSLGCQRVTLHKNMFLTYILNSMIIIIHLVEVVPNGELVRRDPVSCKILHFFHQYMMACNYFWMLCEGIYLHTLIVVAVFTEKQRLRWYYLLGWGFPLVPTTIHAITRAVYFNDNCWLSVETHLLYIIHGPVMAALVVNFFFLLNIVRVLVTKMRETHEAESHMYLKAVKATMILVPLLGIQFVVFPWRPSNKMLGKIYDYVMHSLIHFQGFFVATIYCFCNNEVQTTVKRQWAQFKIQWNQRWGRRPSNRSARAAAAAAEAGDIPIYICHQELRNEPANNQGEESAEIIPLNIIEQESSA
T1 sequence (O60896 24-148 partner): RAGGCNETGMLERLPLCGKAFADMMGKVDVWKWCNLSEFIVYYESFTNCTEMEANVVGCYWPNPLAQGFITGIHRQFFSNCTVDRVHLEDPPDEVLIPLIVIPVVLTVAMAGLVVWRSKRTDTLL
Kind of data set: Luciferase assay of amylin derivatives in amylin receptor/CRE-luc CHO cell line. In kind it is cell-based. Conditions: CHO-K1/Ga15/AMY3 CRE-luc cells, 24 hours incubation, F12 medium containing 10% FBS; read-out: EC50.
Description: The experiment was intended to detect the activity or efficacy of the amylin derivatives on a human amylin receptor in vitro by luciferase assay.
50 μL of growth medium (F12 medium containing 10% FBS) was added into each well of a white 96-well plate, and the stably transfected amylin/CRE-lue CHO cells were inoculated into the white 96-well plate at a density of about 20,000 cells/well for activity determination.

5 compounds from patent US20260166128A1, “HUMAN AMYLIN ANALOG, AND DERIVATIVE THEREOF AND USE THEREOF” (priority 2022, published 2026) can be followed below.

pEC50: −log10 of the molar value. Numbered stars: 1 amine (or outer) side, 2 acyl side, 3 side chain; on linkers, the order of the positions; unused ones are H or OH. Bridge positions count the residues as written; N and C are the ends. Square brackets hold non-standard residues; d marks the D form. Side chains are listed from the residue outwards. Peptide text beside a SMILES is read from it. * marks the point of attachment. C20 diacid = O=C(O)CCCCCCCCCCCCCCCCCCC(=O)*; γGlu = O=C(O)[C@H](CCC(=O)[*:2])N[*:1]; Aad = N[C@@H](CCCC(=O)O)C(=O)O; Orn = NCCC[C@H](N)C(=O)O; Dap = NC[C@H](N)C(=O)O

Usually pEC50 stands for −log10 of the EC50, conventionally taken in molar units.

As to `CC[C@H](C)[C@H](NC(=O)[C@@H]1CCCN1C(=O)[C@H](CCCCNC(=O)CC[C@H](NC(=O)CCCCCCCCCCCCCCCCCCC(=O)O)C(=O)O)NC(=O)[C@H](CC(C)C)NC(=O)[C@H](CC(N)=O)NC(=O)[C@H](CC(N)=O)NC(=O)[C@H](CO)NC(=O)[C@H](CO)NC(=O)[C@H](Cc1c[nH]cn1)NC(=O)[C@H](CCCNC(=N)N)NC(=O)[C@H](CC(C)C)NC(=O)[C@H](Cc1ccccc1)NC(=O)[C@H](CN)NC(=O)[C@H](C)NC(=O)[C@H](CC(C)C)NC(=O)[C@H](CCCNC(=N)N)NC(=O)[C@H](CCC(N)=O)NC(=O)[C@@H](NC(=O)[C@H](C)NC(=O)[C@@H]1CSSC[C@H](NC(=O)[C@@H](N)CCCNC(=N)N)C(=O)N[C@@H](CC(N)=O)C(=O)N[C@@H]([C@@H](C)O)C(=O)N[C@@H](C)C(=O)N[C@@H]([C@@H](C)O)C(=O)N1)[C@@H](C)O)C(=O)N[C@@H](CC(C)C)C(=O)N1CCC[C@H]1C(=O)N1CCC[C@H]1C(=O)N[C@H](C(=O)N[C@@H](CC(N)=O)C(=O)N[C@H](C(=O)NCC(=O)N[C@@H](CO)C(=O)N[C@@H](CC(N)=O)C(=O)N[C@H](C(=O)N1CCC[C@H]1C(N)=O)[C@@H](C)O)C(C)C)[C@@H](C)O` [PD045] (H-RCNTATCATQRLA[Dap]FLRHSSNNLK([γGlu-C20 diacid])PILPPTNVGSNTP-NH2; disulfide 2-7 (inferred); N-terminus assumed), in data set [1], the Dissolution property result is “Clear”, the Freeze storage property result is reported as “Clear” and the Freeze storage yield is reported as 95.59%. Moreover, in data set [2], the pEC50 was 9.44.
As for `CC[C@H](C)[C@H](NC(=O)[C@@H]1CCCN1C(=O)CNC(=O)[C@H](CC(C)C)NC(=O)[C@H](CC(N)=O)NC(=O)[C@H](CCCCNC(=O)CC[C@H](NC(=O)CCCCCCCCCCCCCCCCCCC(=O)O)C(=O)O)NC(=O)[C@H](CO)NC(=O)[C@H](CO)NC(=O)[C@H](Cc1c[nH]cn1)NC(=O)[C@H](CCCNC(=N)N)NC(=O)[C@H](CC(C)C)NC(=O)[C@H](Cc1ccccc1)NC(=O)[C@H](CCC(=O)O)NC(=O)[C@H](C)NC(=O)[C@H](CC(C)C)NC(=O)[C@H](CCCNC(=N)N)NC(=O)[C@H](CCC(N)=O)NC(=O)[C@@H](NC(=O)[C@H](C)NC(=O)[C@@H]1CSSC[C@H](NC(=O)[C@@H](N)CCCNC(=N)N)C(=O)N[C@@H](CC(N)=O)C(=O)N[C@@H]([C@@H](C)O)C(=O)N[C@@H](C)C(=O)N[C@@H]([C@@H](C)O)C(=O)N1)[C@@H](C)O)C(=O)N[C@@H](CC(C)C)C(=O)N1CCC[C@H]1C(=O)N1CCC[C@H]1C(=O)N[C@H](C(=O)N[C@@H](CC(N)=O)C(=O)N[C@H](C(=O)NCC(=O)N[C@@H](CO)C(=O)N[C@@H](CC(N)=O)C(=O)N[C@H](C(=O)N1CCC[C@H]1C(N)=O)[C@@H](C)O)C(C)C)[C@@H](C)O` [PD006] (H-RCNTATCATQRLAEFLRHSSK([γGlu-C20 diacid])NLGPILPPTNVGSNTP-NH2; disulfide 2-7 (inferred); N-terminus assumed), in data set [1], the Dissolution property entry was “Clear” and the Freeze storage property result is on record as “Clear”. Also, the pEC50 in data set [2] was 9.89.
On to `CC[C@H](C)[C@H](NC(=O)[C@@H]1CCCN1C(=O)[C@H](CCCCNC(=O)CC[C@H](NC(=O)CCCCCCCCCCCCCCCCCCC(=O)O)C(=O)O)NC(=O)[C@H](CC(C)C)NC(=O)[C@H](CC(N)=O)NC(=O)[C@H](CC(N)=O)NC(=O)[C@H](CO)NC(=O)[C@H](CO)NC(=O)[C@H](Cc1c[nH]cn1)NC(=O)[C@H](CCCN)NC(=O)[C@H](CC(C)C)NC(=O)[C@H](Cc1ccccc1)NC(=O)[C@H](CCC(=O)O)NC(=O)[C@H](C)NC(=O)[C@H](CC(C)C)NC(=O)[C@H](CCCNC(=N)N)NC(=O)[C@H](CCC(N)=O)NC(=O)[C@@H](NC(=O)[C@H](C)NC(=O)[C@@H]1CSSC[C@H](NC(=O)[C@@H](N)CCCNC(=N)N)C(=O)N[C@@H](CC(N)=O)C(=O)N[C@@H]([C@@H](C)O)C(=O)N[C@@H](C)C(=O)N[C@@H]([C@@H](C)O)C(=O)N1)[C@@H](C)O)C(=O)N[C@@H](CC(C)C)C(=O)N1CCC[C@H]1C(=O)N1CCC[C@H]1C(=O)N[C@H](C(=O)N[C@@H](CC(N)=O)C(=O)N[C@H](C(=O)NCC(=O)N[C@@H](CO)C(=O)N[C@@H](CC(N)=O)C(=O)N[C@H](C(=O)N1CCC[C@H]1C(N)=O)[C@@H](C)O)C(C)C)[C@@H](C)O` [PD046] (H-RCNTATCATQRLAEFL[Orn]HSSNNLK([γGlu-C20 diacid])PILPPTNVGSNTP-NH2; disulfide 2-7 (inferred); N-terminus assumed), for which, in data set [1], the Dissolution property result is listed as “Clear”, the Freeze storage property result was “Clear” and the Freeze storage yield is 101.35%. The pEC50 in data set [2] was 8.78.
As to `CC[C@H](C)[C@H](NC(=O)[C@@H]1CCCN1C(=O)[C@H](CCCCNC(=O)CC[C@H](NC(=O)CCCCCCCCCCCCCCCCCCC(=O)O)C(=O)O)NC(=O)[C@H](CC(C)C)NC(=O)[C@H](CC(N)=O)NC(=O)[C@H](CC(N)=O)NC(=O)[C@H](CO)NC(=O)[C@H](CO)NC(=O)[C@H](Cc1c[nH]cn1)NC(=O)[C@H](CCCNC(=N)N)NC(=O)[C@H](CC(C)C)NC(=O)[C@H](Cc1ccccc1)NC(=O)[C@H](CC(=O)O)NC(=O)[C@H](C)NC(=O)[C@H](CC(C)C)NC(=O)[C@H](CCCNC(=N)N)NC(=O)[C@H](CCC(N)=O)NC(=O)[C@@H](NC(=O)[C@H](C)NC(=O)[C@@H]1CSSC[C@H](N)C(=O)N[C@@H](CC(N)=O)C(=O)N[C@@H]([C@@H](C)O)C(=O)N[C@@H](C)C(=O)N[C@@H]([C@@H](C)O)C(=O)N1)[C@@H](C)O)C(=O)N[C@@H](CC(C)C)C(=O)N1CCC[C@H]1C(=O)N1CCC[C@H]1C(=O)N[C@H](C(=O)N[C@@H](CC(N)=O)C(=O)N[C@H](C(=O)NCC(=O)N[C@@H](CO)C(=O)N[C@@H](CC(N)=O)C(=O)N[C@H](C(=O)N1CCC[C@H]1C(N)=O)[C@@H](C)O)C(C)C)[C@@H](C)O` [PD050] (H-CNTATCATQRLADFLRHSSNNLK([γGlu-C20 diacid])PILPPTNVGSNTP-NH2; disulfide 1-6 (inferred)), in data set [1], the Dissolution property result is listed as “Clear”, the Freeze storage property result is given as “Clear” and the Freeze storage yield was determined as 99.66%. Moreover, the negative-log EC50 (pEC50) in data set [2] was 10.01.
As for `CC[C@H](C)[C@H](NC(=O)[C@@H]1CCCN1C(=O)[C@H](CCCCNC(=O)CC[C@H](NC(=O)CCCCCCCCCCCCCCCCCCC(=O)O)C(=O)O)NC(=O)[C@H](CC(C)C)NC(=O)[C@H](CC(N)=O)NC(=O)[C@H](CC(N)=O)NC(=O)[C@H](CO)NC(=O)[C@H](CO)NC(=O)[C@H](Cc1c[nH]cn1)NC(=O)[C@H](CCCNC(=N)N)NC(=O)[C@H](CC(C)C)NC(=O)[C@H](Cc1ccccc1)NC(=O)[C@H](CCCC(=O)O)NC(=O)[C@H](C)NC(=O)[C@H](CC(C)C)NC(=O)[C@H](CCCNC(=N)N)NC(=O)[C@H](CCC(N)=O)NC(=O)[C@@H](NC(=O)[C@H](C)NC(=O)[C@@H]1CSSC[C@H](NC(=O)[C@@H](N)CCCNC(=N)N)C(=O)N[C@@H](CC(N)=O)C(=O)N[C@@H]([C@@H](C)O)C(=O)N[C@@H](C)C(=O)N[C@@H]([C@@H](C)O)C(=O)N1)[C@@H](C)O)C(=O)N[C@@H](CC(C)C)C(=O)N1CCC[C@H]1C(=O)N1CCC[C@H]1C(=O)N[C@H](C(=O)N[C@@H](CC(N)=O)C(=O)N[C@H](C(=O)NCC(=O)N[C@@H](CO)C(=O)N[C@@H](CC(N)=O)C(=O)N[C@H](C(=O)N1CCC[C@H]1C(N)=O)[C@@H](C)O)C(C)C)[C@@H](C)O` [PD043] (H-RCNTATCATQRLA[Aad]FLRHSSNNLK([γGlu-C20 diacid])PILPPTNVGSNTP-NH2; disulfide 2-7 (inferred); N-terminus assumed), in data set [1], the Dissolution property result is given as “Clear”, the Freeze storage property entry is listed as “Clear” and the Freeze storage yield is listed as 49.45%. Moreover, the pEC50 in data set [2] was 8.95.
